Test results published in patent publication US20240398973A1, “ENGINEERED ANTIBODY COMPOUNDS AND CONJUGATES THEREOF” (Eli Lilly and Company, priority 2017, published 2024).
Read-outs that look alike come from different tables or passages of the source. Blank lines part the entries; values can stand above or below the substance they belong to.

How the values were obtained:
[1] = molecular target: formyl peptide receptor 1 (FPR1) on primary human polymorphonuclear neutrophils (human) (UniProt P21462); assay: cell-based or functional assay
[2] = molecular target: formyl peptide receptor 1 (FPR1) on primary human polymorphonuclear neutrophils (human) (UniProt P21462); assay: cell-based or functional assay; remark: listed apart in the source
[3] = test system: primary human polymorphonuclear neutrophil (PMN); assay: PMN chemotaxis (transwell, modified Boyden chamber); assay type: cell-based
Procedure: Chemotaxis is measured by observing primary human polymorphonuclear neutrophil (PMN) migration across transwell membranes (Corning #3415) towards antibody conjugates in a modified Boyden chamber assay. Approximately 2-4×10^5 cells from neutrophil-enriched preparations are seeded in upper transwell chambers on membranes with 3.0 um pores. The lower transwell chambers contain solutions of buffer alone and fMLF (N-formyl-Met-Leu-Phe peptide as positive control) and experimental antibody bioconjugates. […] Cell numbers are determined using standard curves. All data are transformed to percent relative to the maximal fMLF response for each individual experiment.

human primary PMNs = assay: PMN reactive oxygen species (ROS) production, luminol-amplified chemiluminescence; assay type: cell-based; conditions: relative to 1000 nM fMLF
Procedure: Production of ROS by human primary PMNs is measured using luminol-amplified chemiluminescence. Following isolation, PMNs are suspended at 1×10^6 cells/ml in HBSS containing calcium and magnesium (Gibco #14025-092) supplemented with 0.25% human serum albumin (Gemini Bio producst #800-124) and 50 uM Luminol (SigmaAldrich #123072-2.5G). 100 μl of cell suspension (1×10^5 total cells) is then distributed into each well of a 96-well plate suitable for fluorescence measurement (Greiner #655098) and temperature equilibrated to 37° C. for 5 minutes. Following equilibration, 10× solution of antibody conjugate is applied to the wells, achieving a 1× final concentration.
Immediately after the addition of antibody conjugate, chemiluminescence signal is recorded in a luminometer maintained at 37° C. with 0.01 seconds dwell time per well, 20 seconds total time between sequential plate readings and 45 minutes total run time (PerkinElmer EnVision Multilabel Plate Reader).

PMN ROS production at 1 nM (percent relative to 1000 nM fMLF) [1]: 0.6% | PMN ROS production at 3 nM (percent relative to 1000 nM fMLF) [1]: 0.8% | PMN ROS production at 12 nM (percent relative to 1000 nM fMLF) [1]: 0.9% | PMN ROS production at 30 nM (percent relative to 1000 nM fMLF) [1]: 1.8% | PMN ROS production at 100 nM (percent relative to 1000 nM fMLF) [1]: 3.4% | PMN ROS production at 300 nM (percent relative to 1000 nM fMLF) [1]: 9.1% | PMN ROS production at 1000 nM (percent relative to 1000 nM fMLF) [1]: 25.3% | PMN ROS production at 1 nM (percent relative to 1000 nM fMLF) [2]: 27.4% | PMN ROS production at 2 nM (percent relative to 1000 nM fMLF) [2]: 27.4% | PMN ROS production at 3.9 nM (percent relative to 1000 nM fMLF) [2]: 26.5% | PMN ROS production at 7.8 nM (percent relative to 1000 nM fMLF) [2]: 27.6% | PMN ROS production at 15.6 nM (percent relative to 1000 nM fMLF) [2]: 28.3% | PMN ROS production at 31.3 nM (percent relative to 1000 nM fMLF) [2]: 27.9% | PMN ROS production at 62.5 nM (percent relative to 1000 nM fMLF) [2]: 27.7% | PMN ROS production at 125 nM (percent relative to 1000 nM fMLF) [2]: 24.7% | PMN ROS production at 250 nM (percent relative to 1000 nM fMLF) [2]: 29% | PMN ROS production at 500 nM (percent relative to 1000 nM fMLF) [2]: 53.6% | PMN ROS production at 1000 nM (percent relative to 1000 nM fMLF) [2]: 62.2%
Substance: Emibetuzumab-G4(PAA)-fMLFK-HC-124C-378C (antibody)

Substance: Emibetuzumab-G4(PAA)-UC-HC-124C-378C: unconjugated emibetuzumab IgG4(PAA) with HC 124C and 378C; HC SEQ ID NO:3, LC SEQ ID NO:5
Relative Migration (PMN migration towards antibody conjugates) ([3]; 0.78 nM, relative to 3.12 nM fMLF (Table 6)): 5.48% | Relative Migration (PMN migration towards antibody conjugates) ([3]; 1 nM, relative to 30 nM fMLF (Table 7)): 11.30% | Relative Migration (PMN migration towards antibody conjugates) ([3]; 1.56 nM, relative to 3.12 nM fMLF (Table 6)): 8.05% | Relative Migration (PMN migration towards antibody conjugates) ([3]; 3 nM, relative to 30 nM fMLF (Table 7)): 12.40% | Relative Migration (PMN migration towards antibody conjugates) ([3]; 3.12 nM, relative to 3.12 nM fMLF (Table 6)): 7.24% | Relative Migration (PMN migration towards antibody conjugates) ([3]; 6.25 nM, relative to 3.12 nM fMLF (Table 6)): 6.36% | Relative Migration (PMN migration towards antibody conjugates) ([3]; 10 nM, relative to 30 nM fMLF (Table 7)): 12.27% | Relative Migration (PMN migration towards antibody conjugates) ([3]; 12.5 nM, relative to 3.12 nM fMLF (Table 6)): 4.11% | Relative Migration (PMN migration towards antibody conjugates) ([3]; 25 nM, relative to 3.12 nM fMLF (Table 6)): 5.70% | Relative Migration (PMN migration towards antibody conjugates) ([3]; 30 nM, relative to 30 nM fMLF (Table 7)): 14.66% | Relative Migration (PMN migration towards antibody conjugates) ([3]; 50 nM, relative to 3.12 nM fMLF (Table 6)): 12.02% | Relative Migration (PMN migration towards antibody conjugates) ([3]; 100 nM, relative to 3.12 nM fMLF (Table 6)): 6.67% | Relative Migration (PMN migration towards antibody conjugates) ([3]; 100 nM, relative to 30 nM fMLF (Table 7)): 14.89% | Relative Migration (PMN migration towards antibody conjugates) ([3]; 300 nM, relative to 30 nM fMLF (Table 7)): 17.95% | PMN migration (in words) ([3]; relative to conjugated antibodies): did not induce PMN migration | PMN ROS production (human primary PMNs; 1 nM, AUC 5 minutes (Table 10)): 25.1 percentage | PMN ROS production (human primary PMNs; 1 nM, AUC 5 minutes (Table 17)): 0.5 percentage | PMN ROS production (human primary PMNs; 2 nM, AUC 5 minutes (Table 10)): 25.5 percentage | PMN ROS production (human primary PMNs; 3 nM, AUC 5 minutes (Table 17)): 0.6 percentage | PMN ROS production (human primary PMNs; 3.9 nM, AUC 5 minutes (Table 10)): 25 percentage | PMN ROS production (human primary PMNs; 7.8 nM, AUC 5 minutes (Table 10)): 25.6 percentage | PMN ROS production (human primary PMNs; 12 nM, AUC 5 minutes (Table 17)): 0.5 percentage | PMN ROS production (human primary PMNs; 15.6 nM, AUC 5 minutes (Table 10)): 24.9 percentage | PMN ROS production (human primary PMNs; 30 nM, AUC 5 minutes (Table 17)): 0.6 percentage | PMN ROS production (human primary PMNs; 31.3 nM, AUC 5 minutes (Table 10)): 25.3 percentage | PMN ROS production (human primary PMNs; 62.5 nM, AUC 5 minutes (Table 10)): 24.5 percentage | PMN ROS production (human primary PMNs; 100 nM, AUC 5 minutes (Table 17)): 0.5 percentage | PMN ROS production (human primary PMNs; 125 nM, AUC 5 minutes (Table 10)): 24.6 percentage | PMN ROS production (human primary PMNs; 250 nM, AUC 5 minutes (Table 10)): 24.9 percentage | PMN ROS production (human primary PMNs; 300 nM, AUC 5 minutes (Table 17)): 0.7 percentage | PMN ROS production (human primary PMNs; 500 nM, AUC 5 minutes (Table 10)): 23 percentage | PMN ROS production (human primary PMNs; 1000 nM, AUC 5 minutes (Table 10)): 32.2 percentage | PMN ROS production (human primary PMNs; 1000 nM, AUC 5 minutes (Table 17)): 0.5 percentage

Substance: Tmab-G1-fMIFL-HC124C-378C-(PEG3) (antibody)
EC50 of PMN ROS production [2]: 31.3 nM

Substance: Tmab-G1-fMIFL-HC124C-378C-(PEG6) (antibody)
EC50 of PMN ROS production [2]: 13.6 nM

Substance: Tmab-G1-fMIFL-HC124C-378C-(PEG12) (antibody)
EC50 of PMN ROS production [2]: 36.4 nM
